Bounds are passed on as bounds.

Data set [1] addresses T1, rat NaP2b (SLC34A2) (Rattus norvegicus, UniProt Q9JJ09).
T1 construct: host or cells: HEK293
T1 sequence (Q9JJ09 1-695): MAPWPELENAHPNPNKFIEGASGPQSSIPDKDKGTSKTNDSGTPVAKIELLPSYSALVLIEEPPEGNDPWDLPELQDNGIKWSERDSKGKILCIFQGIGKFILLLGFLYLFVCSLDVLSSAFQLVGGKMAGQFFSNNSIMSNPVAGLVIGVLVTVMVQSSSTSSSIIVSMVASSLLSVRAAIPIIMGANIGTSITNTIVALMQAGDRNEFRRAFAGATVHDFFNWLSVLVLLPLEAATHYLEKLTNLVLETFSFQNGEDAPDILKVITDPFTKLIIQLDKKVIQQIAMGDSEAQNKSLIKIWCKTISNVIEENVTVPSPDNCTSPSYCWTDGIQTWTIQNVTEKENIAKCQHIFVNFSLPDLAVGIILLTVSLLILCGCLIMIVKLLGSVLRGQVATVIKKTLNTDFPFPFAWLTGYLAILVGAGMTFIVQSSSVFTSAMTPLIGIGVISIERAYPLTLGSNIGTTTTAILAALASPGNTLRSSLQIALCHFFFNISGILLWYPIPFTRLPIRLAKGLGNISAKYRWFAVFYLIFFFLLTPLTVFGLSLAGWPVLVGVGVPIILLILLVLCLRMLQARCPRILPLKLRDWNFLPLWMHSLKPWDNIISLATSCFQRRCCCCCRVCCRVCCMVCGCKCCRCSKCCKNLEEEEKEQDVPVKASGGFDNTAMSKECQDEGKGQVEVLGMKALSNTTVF
The data set can be described thus: Inhibition of NaP2b-mediated Pi (33P) uptake in transfected HEK293 cells, rat NaP2b. Particulars: 33P Pi uptake, 0.1 mM phosphate, value given as pIC50 range. The format is cell-based. The method in brief:
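The cells transiently expressed NaP2b after Lipofectamine transfection. Each compound was run in duplicate over twelve concentrations, 0.1 nM–30 uM.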

The nature of data set [2]: Stability of compounds in simulated gastric fluid (SGF). The data set is classed as in vitro ADME. The following applies: simulated gastric fluid (3 mg/mL pepsin), incubation time 6 hr, relative to t=0. On the procedure: (§1) Test compounds were incubated at […] in simulated gastric fluid (SGF; standard USP solution with 3 mg/mL pepsin) or simulated intestinal fluid (SIF; standard USP solution with 3 mg/mL pancreatin) for 3 hr or 6 hr. HPLC-UV or HPLC-MS were used to determine test compound levels using peak area %. Results (Table 14) were reported as the percentage of test compound remaining after incubation in a given condition relative to test compound present at t=0 in the same condition.

A short description of data set [3]: Determination of compound Cmax and AUC after oral gavage (plasma LC-MS/MS). The format is in vivo, Sprague-Dawley rats. The following applies: Sprague-Dawley, rat, plasma, po, Structure (I) examples, Table 15, actual oral dose 3-15 mg/kg, plasma 0.5-4 h. On the procedure:
Sprague-Dawley rats were orally gavaged with test article at a nominal dose of 2.5 or 10 mg/kg and blood was collected at 0.5, 1, 2 and 4 h. Blood samples were processed to plasma using K2EDTA as an anticoaglulant. Plasma samples were treated with acetonitrile containing an internal standard, precipitated proteins removed by centrifugation. Supernatants were analyzed by LC-MS/MS and compound concentrations were determined by interpolation from a standard curve prepared in plasma. All compounds were orally dosed at the dosage shown, and pharmacokinetic parameters determined.
(§2) Sprague-Dawley rats were orally gavaged with test article at a nominal dose of 2.5 or 10 mg/kg and blood was collected at 0.5, 1, 2 and 4 h. Blood samples were processed to plasma using K2EDTA as an anticoaglulant. Plasma samples were treated with acetonitrile containing an internal standard, precipitated proteins removed by centrifugation. Supernatants were analyzed by LC-MS/MS and compound concentrations were determined by interpolated from a standard curve prepared in plasma. All compounds were orally dosed at the dosage shown, and pharmacokinetic parameters determined.
as §2

Data set [4] can be described thus: Stability of compounds in simulated intestinal fluid (SIF). The data set is classed as in vitro ADME. The following applies: simulated intestinal fluid (3 mg/mL pancreatin), incubation time 6 hr, relative to t=0. Here is the method: as §1
Data set [5] deals with T2, human NaP2b (SLC34A2) (Homo sapiens, UniProt O95436).
T2 construct: host or cells: HEK293
T2 sequence (O95436 1-690): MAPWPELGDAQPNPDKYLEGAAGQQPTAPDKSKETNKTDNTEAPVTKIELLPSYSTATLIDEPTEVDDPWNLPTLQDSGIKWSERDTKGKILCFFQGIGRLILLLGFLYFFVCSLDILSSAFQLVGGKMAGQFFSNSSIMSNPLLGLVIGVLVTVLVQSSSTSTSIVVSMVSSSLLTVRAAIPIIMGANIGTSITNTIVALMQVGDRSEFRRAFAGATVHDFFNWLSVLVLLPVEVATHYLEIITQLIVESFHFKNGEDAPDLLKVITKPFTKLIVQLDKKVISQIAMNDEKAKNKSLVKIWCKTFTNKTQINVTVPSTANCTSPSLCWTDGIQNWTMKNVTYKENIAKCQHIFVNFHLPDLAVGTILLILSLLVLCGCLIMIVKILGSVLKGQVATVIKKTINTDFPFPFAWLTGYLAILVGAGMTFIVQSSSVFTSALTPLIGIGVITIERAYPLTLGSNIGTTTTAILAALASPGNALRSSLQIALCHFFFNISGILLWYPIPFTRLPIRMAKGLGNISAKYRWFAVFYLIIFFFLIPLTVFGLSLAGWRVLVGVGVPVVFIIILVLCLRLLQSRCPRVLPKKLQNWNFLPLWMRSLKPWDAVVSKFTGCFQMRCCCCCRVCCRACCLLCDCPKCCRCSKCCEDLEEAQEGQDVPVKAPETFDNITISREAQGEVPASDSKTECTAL
In words: Inhibition of NaP2b-mediated Pi (33P) uptake in transfected HEK293 cells, human NaP2b. The following applies: read-out: pIC50 range for human NaP2b (converted). The data set is classed as cell-based. The procedure, abridged: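 Uptake of 33P-phosphate (100 uM KH2PO4 carrier, sodium vs choline buffer, pH 7.4) measured after 3-30 min at room temperature, with test compound at twelve concentrations from 0.1 nM to 30 uM in duplicate. Cells were HEK293 transfected with mutated human NaP2b (Thr insertion after 37, N39D) and treated with a PiT-silencing agent. pIC50 values from scintillation counts.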

In data set [1], `CCN(CC)c1ccc(NC(=O)c2cccc(C(=O)N(C)CCN3CCOCC3)c2)c(-c2cc(C(=O)N[C@H]3CCCc4ccccc43)ccn2)c1` [Example 131, (S)—N^1-(4-(diethylamino)-2-(4-((1,2,3,4-tetrahydronaphthalen-1-yl)carbamoyl)pyridin-2-yl)phenyl)-N^3-methyl-N^3-(2-morpholinoethyl)isophthalamide] showed an IC50 of less than 1000 nM. For the same compound, in data set [2], the “% remaining, SGF” value was more than 80%. Besides, in data set [3], the AUC – broadly, concentration integrated over time – was less than 50 ng·h/mL and the peak concentration (Cmax) (in general, the maximum level reached in the sampled fluid or tissue) was less than 30 ng/mL. Besides, in data set [4], the “% remaining, SIF” value is given as more than 80%.
In the case of `O=C(CCOCCOCCOCCOCCSCc1cccc(C(=O)Nc2ccc(N3CCCCC3)cc2-c2cc(C(=O)NCc3cccc(C(F)(F)F)c3)ccn2)c1)NCCN1CCOCC1` [Example 146, 2-(2-(3-(20-morpholino-17-oxo-5,8,11,14-tetraoxa-2-thia-18-azaicosyl)benzamido)-5-(piperidin-1-yl)phenyl)-N-(3-(trifluoromethyl)benzyl)isonicotinamide], the IC50 in data set [1] is 1000 to 7940 nM. Moreover, in data set [2], the “% remaining, SGF” value is reported as more than 80%. Besides, in data set [3], the AUC was less than 10 ng·h/mL and the Cmax was less than 10 ng/mL. Moreover, the “% remaining, SIF” value in data set [4] is given as 60-80%.
With `O=C(NCc1cccc(C(F)(F)F)c1)c1ccnc(-c2cc(N3CCCCC3)ccc2NC(=O)c2cccc(CSCCOCCOCCOCCOCCC(=O)N3CCN(CCOCCO)CC3)c2)c1` [Example 147], the IC50 in data set [1] was 1000 to 7940 nM. Moreover, the “% remaining, SGF” value in data set [2] is on record as more than 80%. Moreover, in data set [3], the AUC is less than 10 ng·h/mL and the Cmax is less than 10 ng/mL. For the same compound, in data set [4], the “% remaining, SIF” value is recorded as more than 80%.
Take `COCCOCCOCCOCCOCCOCCOCCOCCNC(=O)CCOCCOCCOCCOCCSCc1cccc(C(=O)Nc2ccc(N3CCCCC3)cc2-c2cc(C(=O)NCc3cccc(C(F)(F)F)c3)ccn2)c1` [Example 148, 2-(2-(3-(27-oxo-2,5,8,11,14,17,20,23,30,33,36,39-dodecaoxa-42-thia-26-azatritetracontan-43-yl)benzamido)-5-(piperidin-1-yl)phenyl)-N-(3-(trifluoromethyl)benzyl)isonicotinamide]: the IC50 in data set [1] is 1000 to 7940 nM. For the same compound, in data set [2], the “% remaining, SGF” value is more than 80%. Moreover, in data set [3], the AUC is less than 10 ng·h/mL and the Cmax was less than 10 ng/mL. In addition, the “% remaining, SIF” value in data set [4] is given as more than 80%.
In data set [1], `O=C(CCOCCOCCOCCOCCSCc1cccc(C(=O)Nc2ccc(N3CCCCC3)cc2-c2cc(C(=O)NCc3cccc(C(F)(F)F)c3)ccn2)c1)NCCOCCOCCOCCOCCOCCOCCOCCO` [Example 149, 2-(2-(3-(41-hydroxy-17-oxo-5,8,11,14,21,24,27,30,33,36,39-undecaoxa-2-thia-18-azahentetracontyl)benzamido)-5-(piperidin-1-yl)phenyl)-N-(3-(trifluoromethyl)benzyl)isonicotinamide] had an IC50 of 1000 to 7940 nM. Further, the “% remaining, SGF” value in data set [2] was more than 80%. In data set [3], this compound gave an AUC of less than 10 ng·h/mL and a Cmax of less than 10 ng/mL. In data set [4], the “% remaining, SIF” value is given as more than 80%.
`CN(CCN1CCOCC1)C(=O)CCOCCOCCOCCOCCSCc1cccc(C(=O)Nc2ccc(N3CCCCC3)cc2-c2cc(C(=O)NCc3cccc(C(F)(F)F)c3)ccn2)c1` [Example 150, 2-(2-(3-(18-methyl-20-morpholino-17-oxo-5,8,11,14-tetraoxa-2-thia-18-azaicosyl)benzamido)-5-(piperidin-1-yl)phenyl)-N-(3-(trifluoromethyl)benzyl)isonicotinamide]: the IC50 in data set [1] is 10000 to 31600 nM. In addition, the “% remaining, SGF” value in data set [2] is reported as more than 80%. In data set [3], the AUC is less than 10 ng·h/mL and the Cmax is less than 10 ng/mL. For the same compound, the “% remaining, SIF” value in data set [4] was more than 80%.
Take `CCN(CC)c1ccc(NC(=O)c2cccc(Cn3ccc4c(C(=O)NCCOCCOCCOCCC(=O)O)cccc43)c2)c(-c2cc(C(=O)N[C@H]3CCCc4ccccc43)ccn2)c1` [Example 182, (S)-1-(1-(3-(4-(diethylamino)-2-(4-(1,2,3,4-tetrahydronaphthalen-1-ylcarbamoyl)pyridin-2-yl)phenylcarbamoyl)benzyl)-1H-indol-4-yl)-1-oxo-5,8,11-trioxa-2-azatetradecan-14-oic acid]: the “% remaining, SGF” value in data set [2] is more than 80%. The “% remaining, SIF” value in data set [4] is on record as more than 80%.
Take `CCN(CC)c1ccc(NC(=O)c2cccc(C(=O)N(C)CCN3CCCN(C(=O)OCCOCCOCCOCCOCCOCCOCCOCCOCCOCCOCCOC)CC3)c2)c(-c2cc(C(=O)N[C@H]3CCCc4ccccc43)ccn2)c1` [Example 199, (S)-2,5,8,11,14,17,20,23,26,29,32-undecaoxatetratriacontan-34-yl 4-(2-(3-((4-(diethylamino)-2-(4-((1,2,3,4-tetrahydronaphthalen-1-yl)carbamoyl)pyridin-2-yl)phenyl)carbamoyl)-N-methylbenzamido)ethyl)-1,4-diazepane-1-carboxylate]: in data set [2], the “% remaining, SGF” value is on record as more than 80%. In data set [3], this compound registered an AUC of less than 10 ng·h/mL and a Cmax of less than 10 ng/mL. Also, the “% remaining, SIF” value in data set [4] is more than 80%.
Regarding `O=C(O)Cc1cccc(SCc2cccc(C(=O)Nc3ccc(N4CCCCC4)cc3-c3cc(C(=O)N[C@H]4CCCc5ccccc54)ccn3)c2)c1` [Example 234, (S)-2-(3-(3-(4-(piperidin-1-yl)-2-(4-(1,2,3,4-tetrahydronaphthalen-1-ylcarbamoyl)pyridin-2-yl)phenylcarbamoyl)benzylthio)phenyl)acetic acid], the IC50 in data set [1] is less than 1000 nM. The IC50 in data set [5] is less than 1000 nM. For the same compound, in data set [3], the AUC was less than 30 ng·h/mL and the Cmax is less than 10 ng/mL.
As for `CN(CCOCCOCCOCCC(=O)O)C(=O)Cc1cccc(SCc2cccc(C(=O)Nc3ccc(N4CCCCC4)cc3-c3cc(C(=O)N[C@H]4CCCc5ccccc54)ccn3)c2)c1` [Example 235, (S)-3-methyl-2-oxo-1-(3-(3-(4-(piperidin-1-yl)-2-(4-(1,2,3,4-tetrahydronaphthalen-1-ylcarbamoyl)pyridin-2-yl)phenylcarbamoyl)benzylthio)phenyl)-6,9,12-trioxa-3-azapentadecan-15-oic acid], the IC50 in data set [1] is less than 1000 nM. Further, in data set [2], the “% remaining, SGF” value is more than 80%. In addition, the “% remaining, SIF” value in data set [4] was more than 80%.

The values above are taken from US20140023611A1 (priority 2010, published 2014).
